Experimental data: publication PMC8762250, “Identification of Novel Chemical Scaffolds that Inhibit the Growth of Mycobacterium tuberculosis in Macrophages” (Frontiers in Pharmacology, 2022)
“And” between values parts separate entries of the source, which are not always exact repeats. Equal entries are not always repeated. Where two headings read alike, the source gives them in different places. Marks after values point to notes of the source that are not given here.

Assays:
M. tuberculosis [1] = test: High content assay of intracellular M. tuberculosis growth in infected RAW264.7 macrophages; type: cell-based, Mycobacterium tuberculosis H37Rv-LP; conditions: Mycobacterium tuberculosis, RAW264.7, 72 h, M. tuberculosis in RAW264.7 cells, MOI 1, 72 h; read-out: Intracellular activity Anti-tubercular activity IC50
Protocol: Compounds were obtained in 384-well plates as 10 mM DMSO stock solutions and tested as described ([Manning et al., 2017]). Briefly, assay plates were prepared in clear bottom, black 384-well plates with 30 μl cRPMI and 0.6 μl compound in columns 3–22 (final concentration of 10 μM compound, 1% DMSO). […] INH and STA were also included in dose response on each plate. RAW264.7 cells were infected with M. tuberculosis DREAM8 as described ([Manning et al., 2017]) at an MOI of 1 for 24 h and extracellular bacteria removed by washing. Cells were recovered using Accumax, harvested, washed and resuspended in serum-free RPMI; 30 μl of infected cells were dispensed into each well at 3,300 cells/well. Plates were incubated for 72 h, 10 μl of 5X SYBR Green I was added and plates were imaged with an ImageXpress Micro High Content Screening System (Molecular Devices) using a ×4 objective and FITC and Texas Red channels. MetaXpress was used to analyze images. The integrated intensity of M. tuberculosis or macrophages was calculated for each well. Growth inhibition was calculated for each test well by normalizing to the average integrated intensity of the DMSO control wells. IC50 was calculated as the compound concentration required to reduce bacterial growth by 50%. TC50 was calculated as the compound concentration required to reduce macrophage viability by 50%.

[2] = HepG2 cytotoxicity (CellTiter-Glo, 72 h); type: cell-based, human; conditions: human
Protocol: (§1) Cytotoxicity against HepG2 cells was measured after 72 h. Cells were seeded in 384-well plates at 1,800 cells per well. Compounds were added as a 10-point three-fold serial dilution after 24 h (final assay concentration of 1% DMSO). CellTiter-Glo® reagent (Promega) was added and relative luminescence units (RLU) measured. Data were normalized to the DMSO controls. Curves were fitted using the Levenberg–Marquardt algorithm; TC50 was calculated as the compound concentration required to reduce cell viability by 50%.
(§2) We further evaluated cytotoxicity using the HepG2 cell line cultured with either glucose or galactose in the medium (Table 2). HepG2 cells cultured with galactose rely on mitochondrial oxidative phosphorylation rather than glycolysis which increases their susceptibility to mitochondrial toxicants allowing us to identify compounds with mitochondrial toxicity ([Kamalian et al., 2015]).

HepG2 cells = test: HepG2 cytotoxicity (CellTiter-Glo, 72 h); type: cell-based, human; conditions: for HepG2 cytotoxicity TC50 Galactose / HepG2 cytotoxicity TC50 Glucose: 72 h
Protocol: as §1, §2

M. tuberculosis [3] = test: Minimum inhibitory concentration in liquid medium (axenic culture); type: cell-based, Mycobacterium tuberculosis; conditions: Mycobacterium tuberculosis; for IC50: read-out: Anti-tubercular activity in axenic culture IC50
RAW264.7 cells = test: Macrophage viability in the same high content assay; conditions: infected RAW264.7 macrophages; for Intracellular activity Cytotoxicity TC50: 72 h; for Intracellular RAW TC50: SAR tables 4-8
[4] = HepG2 cytotoxicity IC50 Galactose
[5] = HepG2 cytotoxicity IC50 Glucose
[6] = 120 h, extracellular, 5 days, OD590
[7] = 120 h, extracellular, 5 days, OD590, read-out: Anti-tubercular activity in axenic culture IC90
[8] = axenic culture, SAR tables 4-8, read-out: Extracellular IC90

Row | SMILES | IC50 (M. tuberculosis [1]) [µM] | IC50 at 72 h [2, 4] [µM] | IC50 at 72 h [2, 5] [µM] | HepG2 cytotoxicity TC50 Galactose (HepG2 cells; human) | HepG2 cytotoxicity TC50 Glucose (HepG2 cells; human) | IC50 (M. tuberculosis [3]; [6]) [µM] | IC90 (M. tuberculosis [3]; [7]) [µM] | IC90 (M. tuberculosis [3]; [8]) [µM] | Intracellular activity Cytotoxicity TC50 (RAW264.7 cells) | Intracellular RAW TC50 (RAW264.7 cells) | ratio of TC50glu/TC50gal (HepG2 cells; HepG2, glucose vs galactose) | HepG2 cytotoxicity TC50 Galactose (HepG2 cells; galactose medium) | HepG2 cytotoxicity TC50 Glucose (HepG2 cells; glucose medium) | IC50 (M. tuberculosis [3]; 120 h) [µM] | IC90 (M. tuberculosis [3]; 120 h, read-out: Anti-tubercular activity in axenic culture IC90) [µM]
1 | NNC(=O)c1ccncc1 [INH, isoniazid, reference compound] | 0.23 ± 0.08 | – | – | – | – | – | – | – | – | – | – | – | – | – | –
2 | Cc1ccc(OCC(=O)Nc2ccc(N3CCCCC3)c(Cl)c2)cc1 [TPN-0006206] | – | > 100 | > 100 | >100 ^b µM | >100 ^b µM | > 20 | > 20 | > 20 | 57 ± 20 ^b µM | 57 ± 20 ^c µM | – | – | – | – | –
3 | O=C(COc1ccc(Cl)cc1)Nc1ccc(N2CCCCC2)c(Cl)c1 [TPN-0006209] | – | > 100 | > 100 | >100 ^b µM | >100 ^b µM | > 20 | > 20 | > 20 | 68 ± 0.50 ^b µM | 68 ± 0.5 ^b µM | – | – | – | – | –
4 | Cc1sc(NC(=O)c2ccc(OC(C)C)cc2)c(C(N)=O)c1C [TPN-0073559] | – | 41 ± 11 | 49 ± 8.5 | 41 ± 11 ^c µM | 49 ± 8.5 ^c µM | > 20 | > 20 | > 20 | 50 ± 24 ^d µM | 50 ± 24 ^d µM | – | – | – | – | –
5 | COc1c(Cl)ccc(Cl)c1C(=O)Nc1sc2c(c1C(N)=O)CCCC2 [TPN-0073571] | – | 26 ± 5 | > 100 | 26 ± 5.0 ^b µM | >100 ^b µM | – | – | – | 15 ± 5 µM and 15 ± 5.0 ^b µM | – | ~4 | – | – | – | –
6 | CCOC(=O)c1sc(NC(=O)Cc2c(F)cccc2Cl)nc1C [TPN-0089695] | 4.7 ± 1.2 | – | – | >100 ^e µM | >100 ^d µM | 19 | > 20 | – | 45 ± 17 ^b µM | – | – | – | – | – | –
7 | Cn1nc(C2CC2)cc1C(=O)Nc1ccc(I)cc1 [TPN-0089788] | 2.5 ± 0.57 | – | – | 30 ± 12 ^e µM | 52 ± 18 ^e µM | > 20 | > 20 | – | >100e µM | – | – | – | – | – | –
8 | Clc1ccc(Nc2nc(-c3cccs3)cs2)cc1 [TPN-0095025] | 4.4 ± 1.7 | – | – | 28 ± 1.5 ^b µM | 35 ± 1.0 ^a µM | > 20 | > 20 | – | 26 ± 7.1 ^c µM | – | – | – | – | – | –
9 | Clc1ccc(C2C=C(c3ccc(Br)cc3)Nc3ncnn32)cc1 (centres unmarked) [TPN-0095026] | – | – | – | 18 ± 5 ^b µM | 19 ± 3.5 ^b µM | 19 ± 1 | > 20 | – | 19 ± 12 ^b µM | – | – | – | – | – | –
10 | COc1ccc(CNC(=O)c2c(C)nc3ccccn23)cc1 [TPN-0095027] | 0.1 ± 0.01 | – | – | 22 ± 2.2 ^c µM | 76 ± 12 ^c µM | 0.17 ± 0.02 | 0.6 ± 0.2 | – | 72 ± 16 ^d µM | – | – | – | – | – | –
11 | Cc1ccc(Nc2nc(C(N)=O)c(N)s2)cc1 [TPN-0095028] | 4.4 ± 1.3 | – | – | 62 ± 6.2 ^c µM | 54 ± 9.4 ^c µM | > 20 | > 20 | – | 54 ± 20 ^b µM | – | – | – | – | – | –
12 | COc1ccc(C2Oc3ccc(Cl)cc3C3=C2C(c2ccc(OC)cc2)n2ncnc2N3)cc1 (centres unmarked) [TPN-0095029] | > 50 | – | – | >50 ^b µM | >50 ^b µM | > 10 | > 10 | – | >50 ^b µM | – | – | – | – | – | –
13 | Clc1c(-c2ccccc2)nc2ccccn12 [TPN-0095030] | 6.9 ± 1.9 | – | – | >100 ^b µM | >100 ^b µM | > 20 | > 20 | – | >100 ^b µM | – | – | – | – | – | –
14 | COc1ccc(OCCNC(=O)c2cc([N+](=O)[O-])cc([N+](=O)[O-])c2)cc1 [TPN-0095031] | 0.036 ± 0.007 | – | – | – | – | – | – | – | 40 ± 25 ^e µM | – | – | 52 ± 0.47 ^c µM | 57 ± 6.2 ^c µM | 0.2 ± 0.07 | 0.4 ± 0.14
15 | Cc1ccc(Nc2nc(-c3ccc(Cl)cc3)cs2)cc1Cl [TPN-0095032] | 3.5 ± 0.83 | – | – | 19 ± 0.5 ^b µM | 23 ± 1.5 ^b µM | > 20 | > 20 | – | 9.9 ± 0.98 ^c µM | – | – | – | – | – | –
16 | O=c1c(/C=N/Cc2cccnc2)c(NCc2cccnc2)nc2ccccn12 [TPN-0095033] | 3.4 ± 2.6 | – | – | >100 ^c µM | >100 ^c µM | > 20 | > 20 | – | >100 ^c µM | – | – | – | – | – | –
17 | O=C(c1ccc(Cl)c(Cl)c1)N1CCN(c2ccc([N+](=O)[O-])c3cccnc23)CC1 [TPN-0095034] | 8.4 ± 2.3 | – | – | >100 ^c µM | >100 ^c µM | > 20 | > 20 | – | >100 ^d µM | – | – | – | – | – | –
18 | O=C(c1c(F)cccc1F)N1CCN(c2cc(N3CCCCCC3)c(F)cc2[N+](=O)[O-])CC1 [TPN-0095035] | 1 ± 0.02 | – | – | 21 ± 2.0 ^b µM | 27 ± 0 ^b µM | 9.6 ± 0.1 | > 10 | – | >50 ^c µM | – | – | – | – | – | –
19 | O=C(CN(C1=NCCCS1)c1ccccc1)c1ccc(Cl)c(Cl)c1 [TPN-0095036] | 3.5 ± 0.97 | – | – | 20 ± 0.47 ^c µM | 21 ± 3.4 ^c µM | > 20 | > 20 | – | 27 ± 2.8 ^c µM | – | – | – | – | – | –
20 | Cc1ccc(NC(=O)CCN2CCN(c3ccc(Cl)cc3)CC2)cc1 [TPN-0095037] | 2 ± 0.53 | – | – | 56 ± 4 ^b µM | 84 ± 2.5 ^b µM | > 20 | > 20 | – | 54 ± 26 ^c µM | – | – | – | – | – | –
21 | Brc1c(-c2ccccc2)nc2ccccn12 [TPN-0095038] | 2.5 | – | – | >100 ^c µM | >100 ^b µM | 9.2 ± 1 | > 20 | – | 72 ± 15 ^b µM | – | – | – | – | – | –
22 | Fc1ccc(C2CC(c3ccc(Cl)cc3Cl)n3ncnc3N2)cc1 (centres unmarked) [TPN-0095039] | 2.1 ± 0.74 | – | – | 30 ± 3.2 ^d µM | 29 ± 7.7 ^e µM | 14 ± 2.1 | 18 ± 1.4 | – | 24 ± 6.1 ^c µM | – | – | – | – | – | –
23 | CCOC(=O)c1nnn(-c2nc(N3CCCC3)nc(N3CCCC3)n2)c1-c1ccccc1 [TPN-0095040] | – | – | – | >50 ^c µM | >50 ^c µM | > 10 | > 10 | – | 31 ± 18 ^b µM | – | – | – | – | – | –
24 | COc1ccc(C(=O)c2sc(NCc3ccccc3)nc2N)cc1 [TPN-0095041] | 3.6 ± 0.5 | – | – | 24 ± 0.5 ^b µM | 52 ± 5.5 ^b µM | 14 ± 1 | > 20 | – | 13 ± 5.5 ^c µM | – | – | – | – | – | –
25 | O=C(CN1CCC(Cc2ccccc2)CC1)Nc1ccc(Cl)cn1 [TPN-0095042] | 3.7 ± 0.62 | – | – | 19 ± 1.0 ^b µM | 26 ± 3.0 ^b µM | > 10 | > 10 | – | 21 ± 9.3 ^c µM | – | – | – | – | – | –
